Several values for one entry are separate records, joined by “and”; a condition that tells them apart may be missing. Equal values may be shown once. Entries after “also recorded” stand apart in the source; their conditions may differ. Read-outs that look alike come from different tables or passages of the source.
Assays:
[1] = biological target: solubilized CcO from mitochondria; details: read-out: Kc (dissociation constant for DM), cited from earlier work
[2] = biological target: T1, solubilized cytochrome c oxidase (CcO) from bovine heart mitochondria (Bos taurus, UniProt P00396+P68530); assay: Oxidase activity of solubilized CcO, oxygen consumption (Clark-type electrode); assay type: biochemical; details: for Kd: read-out: Kc, dissociation constant of the DM-CcO complex
T1 construct: Cytochrome c oxidase (CcO) was purified from heart mitochondria of Bos taurus; from tissue; host or cells: bovine heart mitochondria
Source text: Preparations. Cytochrome c oxidase (CcO) was purified from heart mitochondria of Bos taurus. […] CcO was isolated according to a modified method of Fowler et al. [21] described previously [22].

mitochondrial CcO = system: mitochondrial CcO; set-up: method as in PMID 8013649; details: 0.2 μM enzyme; cited from earlier work
[3] = system: T2, cytochrome c oxidase (CcO); assay: Peroxidase activity of CcO (ferrocyanide peroxidation); assay type: biochemical, Bos taurus; details: for rate of peroxidase reaction: 0.5 mM hormone, control 0.19 e−/s, error about 10%
T2 construct: Cytochrome c oxidase (CcO) was purified from heart mitochondria of Bos taurus; from tissue; host or cells: bovine heart mitochondria
Experimental: To obtain a redox buffer with Em ≈ 420 mV, equal amounts of ferri- and ferrocyanide were mixed. To facilitate the interaction of ferrocyanide with CcO, 0.2 μM cytochrome c was present.
Peroxidation of ferrocyanide (0.2 mM) was monitored in the presence of 0.6 μM CcO. […] Trace 1, black = control; trace 2, red = the experiment in the presence of 1 mM T4; trace 3, blue = 1 mM T4 added in the course of the experiment, as indicated.

CcO in proteoliposomes = system: T3, CcO in proteoliposomes; assay: Ferrocytochrome c oxidation by CcO in proteoliposomes; assay type: biochemical, Bos taurus
T3 construct: Cytochrome c oxidase (CcO) was purified from heart mitochondria of Bos taurus; from tissue; host or cells: bovine heart mitochondria
Experimental: CcO reconstruction into phospholipid vesicles.
Cytochrome c was reduced beforehand by dithionite.
Figure 2 Inhibitory effect of thyroid hormones on the oxidase activity of the membrane-incorporated CcO. […] Proteoliposomes were added to the experimental medium up to 26 nM CcO. The oxidase reaction was initiated by addition of the respiratory substrate. Other details are as in Figure 1B,D. (D) T3-induced inhibition of ferrocytochrome c oxidation by CcO in proteoliposomes. […] Other conditions are as in panel (A) except that proteoliposomes were added to the medium up to 3.25 nM CcO and pre-incubated for 30 min before adding the respiratory substrate. […] Mitochondria were suspended in the experimental medium up to 0.8 mg of protein/mL. Other details are as in Figure 1B,D. (F) Inhibitory effect of T4 on CcO oxidase activity in SMP obtained from bovine heart mitochondria. The conditions were essentially as in panel (E) except that the CcO concentration was 20 nM.

[4] = system: cytochrome c oxidase (electron transfer from heme a to heme a3); assay: Level and kinetics of heme a / heme a3 reduction in CcO; details: pH 8.0, 5 μM RuAm, 5 mM ascorbate
Experimental: The kinetics of spectral changes were monitored on spectrophotometer SLM Aminco DW-2000 (SLM Instruments, Urbana, IL, USA) in dual-wavelength mode.
The oxidase reaction was carried out using ascorbate (as an electron source) in combination with the redox mediators RuAm and TMPD. The reduction of CcO was monitored spectrophotometrically.
The total reduction level of hemes a and a3 was registered. […] The other conditions were as in panel (A) except that 0.1 mM TMPD was used instead of RuAm.

[5] = biological target: T4, CcO in SMP obtained from bovine heart mitochondria (Bos taurus, UniProt P00396+P68530); assay: CcO oxidase activity in bovine heart submitochondrial particles (SMP); assay type: biochemical
T4 construct: Then, CcO in the native mitochondrial membrane was investigated; from tissue; host or cells: bovine heart submitochondrial particles
Experimental: Preparation of bovine heart submitochondrial particles (SMP). The heavy fraction of bovine heart mitochondria was suspended in 40 mL of 0.3 M sucrose supplemented with 5 mM MgSO4, 1 mM succinate, 1 mM ATP and 10 mM Hepes, pH 8.0. […] Mitochondrial debris was removed by centrifugation for 12 min at 15,000 rpm (Beckman JA-20, Brea, CA, USA). SMP were precipitated from supernatant at 100,000 g for 1 h, washed by 0.3 M sucrose with 10 mM Hepes, pH 7.5 and precipitated as previously described. The final precipitate was suspended in a small volume of the same buffer and frozen. To determine the CcO concentration in the sample, a small amount of SMP was solubilized in 50 mM Hepes/Tris buffer, pH 7.6 containing 1% DM.

[6] = system: T5, xanthine oxidase from bovine milk; assay: Superoxide formation by xanthine oxidase oxidizing hypoxanthine (test for superoxide dismutase activity); assay type: biochemical; details: hypoxanthine 50 μM, XOx 0.015 units/mL; 500 μM T4; SOD 20 μg/mL
T5 construct: xanthine oxidase from bovine milk; purchased Sigma-Aldrich; host or cells: bovine milk
Source text: The conditions were adjusted so that the rate of WST reduction was approximately the same as in panel (A).

[7] = biological target: CcO incorporated into azolectin vesicles (proteoliposomes) (Bos taurus, UniProt P00396+P68530); assay: Oxidase activity of CcO in proteoliposomes, oxygen consumption
Experimental: First, the effect of thyroid hormones on CcO incorporated into azolectin vesicles was studied. The activity was assayed in the same way as in solution except for the absence of detergent and presence of protonophore in the medium (see Section 2).

[8] = system: T6, oxidized cytochrome c oxidase (CcO); assay: Formation of CcO oxoferryl intermediates FI-607 and FII-580 with H2O2 (titration, stopped-flow); assay type: biochemical, Bos taurus
T6 construct: Cytochrome c oxidase (CcO) was purified from heart mitochondria of Bos taurus; from tissue; host or cells: bovine heart mitochondria
Experimental: Stopped-flow experiments were performed using a stopped-flow spectrophotometer (Applied Photophysics SX-20, Leatherhead, UK) operated in the diode array mode, using a 20-μL cell with a 1-cm optical pathway.
Oxoferryl intermediates’ formation was monitored using stopped-flow techniques. CcO in the basic medium, pH 8.1 supplemented with 0.1% DM, 0.05 mM ferricyanide and when necessary, T4 was rapidly mixed with an equal volume of the same buffer containing H2O2.
We carried out such a titration to evaluate the effects of thyroid hormones on the equilibrium of oxoferryl intermediates.
Figure 6 Effect of T4 on the formation of CcO oxoferryl intermediates during the reaction with H2O2. The reaction was followed using a diode array spectrophotometer. […] (A, B) Kinetics of the oxoferryl intermediates’ formation. […] (A) Control; (B) CcO was pre-incubated with 0.5 mM T4 until mixing.

[9] = system: cytochrome c oxidase (CcO); assay: Catalase activity of CcO (oxygen release from H2O2); details: higher hormone concentration (curve 4, 1 mM)
Experimental: The catalase activity of CcO was detected by a Clark-type electrode in the presence of excess hydrogen peroxide, in 30 mM potassium-phosphate buffer, pH 7.1 supplemented with 2 mM EDTA and 0.05% DM, as described in [26].

[10] = biological target: mitochondrial cytochrome c oxidase (CcO) (Bos taurus, UniProt P00426); assay: Superoxide generation by CcO in excess H2O2 (WST-1 reduction)
Experimental: The reaction of superoxide generation catalyzed by CcO in the presence of excess hydrogen peroxide was assayed in the basic medium, pH 7.6 by the classic method [27], monitoring the superoxide dismutase-sensitive reduction of tetrazolium salts to formazan.
Addition of 0.4 µM T4 is indicated. CcO was added up to 0.5 μM to the experimental medium, supplemented with 0.1 mM WST-1. The reaction was initiated by addition of 4 mM H2O2 (indicated by the arrow). […] Conditions of the measurements are as in panel (A).

## CCCCCCCCCCCCO[C@@H]1O[C@H](CO)[C@@H](O[C@H]2O[C@H](CO)[C@@H](O)[C@H](O)[C@H]2O)[C@H](O)[C@H]1O [DM, dodecyl-maltoside]
[1]; from study of CcO inhibition by Triton X-100
  Kd: 1200 µM
[1]; from study of CcO inhibition by estradiol
  Kd: 1470 µM
[1]; from study of CcO inhibition by testosterone
  Kd: 1300 µM
[2]; from competition with T3 (T3=0)
  Kd: ~1120 µM
[2]; from competition with T4 (T4=0)
  Kd: ~1100 µM

## N[C@@H](Cc1cc(I)c(Oc2ccc(O)cc2)c(I)c1)C(=O)O [T2, 3,5-diiodo-thyronine]
Mitochondrial CcO
  concentration from which effects of T2 start: 10^−7 M
[3]
  rate of peroxidase reaction: 0.21 e^−/s

## N[C@@H](Cc1cc(I)c(Oc2ccc(O)c(I)c2)c(I)c1)C(=O)O [T3, L-3,5,3′-triiodide-thyronine]
CcO in proteoliposomes; 0.5 mM T3 (~450 turnovers)
  time of enzyme activity after which inhibition develops: 10 s
CcO in proteoliposomes; 0.5 mM T3, pre-incubation 30 min, 3.25 nM CcO
  decrease in the activity compared to the control: approximately twofold decrease
[4]; 1 mM hormone
  increase of steady-state level of heme a reduction over control: ~ 75%
[4]; 2 mM hormone
  increase of steady-state level of heme a reduction over control: ~ 115%

## N[C@@H](Cc1cc(I)c(Oc2cc(I)c(O)c(I)c2)c(I)c1)C(=O)O [T4, L-3,5,3′,5′tetraiodo-thyronine]
[5]
  extent of inhibition: complete inhibition
[5]; 20 nM CcO
  Ki: 2200 ± 200 µM
[6]
  effect on the rate of dye (WST) reduction: does not affect the rate of dye reduction
[3]
  rate of peroxidase reaction: 0.22 e^−/s
[3]; 1 mM T4, 0.6 μM CcO, 4 mM H2O2
  effect on the rate of ferrocyanide peroxidation: does not noticeably change; also recorded: complete resistance
[7]
  Ki: 310 µM
[8]; 0.5 mM T4, 15 s after mixing
  deviation of FI-607 (lower) and FII-580 (higher) concentration from control: about 10%
[8]; 0.5 mM hormone
  acceleration of formation of FII-580 (form 580): 23% and 20–25%
[8]; 0.5 mM hormone, titration of oxidized CcO with peroxide
  decrease in the quasi-stationary concentration ratio [FI-607]/[FII-580] vs control: 15–25%
[2]; […] T4, 20 nM CcO
  decrease of the rate of oxygen consumption: approximately two times
[2]; lowest tested DM concentrations (0.02% and 0.05%)
  extent of inhibition of enzyme activity: 70–80%
[2]; oxygen consumption, pH 7.6, 25 °C, from linear dependence of Ki(app) on [DM] 0.4–10 mM, DM=0, read-out: true inhibition constant Ki (in the absence of DM)
  Ki: ~100 µM and 100 µM
[2]; solubilized enzyme, Figure 1C,E, read-out: Ki
  Ki: ~100 µM
[9]
  suppression of catalase activity: 10–20%
[10]
  Ki: 0.3 µM
[10]; 0.4 μM T4
  drop of the rate of WST-1 reduction (superoxide production): drops threefold
[4]; 1 mM hormone
  increase of steady-state level of heme a reduction over control: ~ 50%

## superoxide dismutase: superoxide dismutase from bovine erythrocytes, control blocking WST reduction
[6]
  effect on the rate of dye (WST) reduction: completely blocked

From PMC8909594, “Direct Interaction of Mitochondrial Cytochrome c Oxidase with Thyroid Hormones: Evidence for Two Binding Sites” (Cells, 2022)
